Experiments:
Type in all cases: cell-based
[1] = target: T1, KRAS G12V protein in SW900 cells (Homo sapiens, UniProt P01116, G12V); test: KRAS degradation assay (Western Blot) in SW900 cells; settings: 24 h
T1 construct: endogenous in cells; host or cells: SW900
From the text: (§1) Test Example 5: KRAS G12C, KRAS G12D, KRAS G12V, KRAS G13D, and KRAS WT (Expanded) Degradation Assays
(§2) The degradation effect of the compounds on KRAS was investigated on KRAS G12C mutant human non-small cell lung cancer cell NCI-H358, KRAS G12D mutant human metastatic pancreatic cancer cell AsPc-1, KRAS G12D mutant human lung cancer cell A427, KRAS G12V mutant human colorectal cancer cell SW620, KRAS G12V mutant human lung cancer cell SW900, KRAS G13D mutant human colorectal cancer epithelial cell DLD-1, and KRAS WT human gastric cancer cell MKN-1. The specific procedures were as follows: 0.95 mL of cells were seeded into each well of a 24-well cell culture plate to achieve a cell density of 5×10^5 cells/well; and the cell plate was incubated in an incubator at 37° C. with 5% CO2 overnight. Then 50 μL of the compound solution after dilution was added to each of the wells with the corresponding cells, so that the final concentration of the compound was in a range of 0.03-3000 nM. The final concentration of DMSO was 0.25%. After the compounds were added, the cell plate was incubated in an incubator at 37° C. with 5% CO2 for 24 h. The culture medium in the 24-well cell culture plate was then removed, and the plate was washed twice with 1×PBS (KeyGEN). 120 μL of RIPA (strong) lysis buffer (Beyotime) (supplemented with 1 mM phenylmethylsulfonyl fluoride, a protease inhibitor mixture (Beyotime), and a protease phosphatase inhibitor mixture (Beyotime)) was added to lyse adherent SW900 cells at the bottom of the cell culture plate. After the plate was left to stand on ice for 30 min, the protein lysate in each well was transferred to a 1.5 mL centrifuge tube and centrifuged at 15000 g for 20 min at 4° C. The cell lysate supernatants after centrifugation were cryopreserved in a refrigerator at −80° C. for later use.
(§3) After the samples of the cell lysate supernatants that had been prepared were thawed from the refrigerator at −80° C., the total protein concentrations of the cell lysates were determined using a BCA protein quantification kit (Tiangen). The total protein concentrations of the samples were then adjusted to 0.5 μg/μL with PBS and 5×SDS-PAGE protein loading buffer (Beyotime), and the samples were incubated in a water bath at 100° C. for 15 min. The samples were then incubated in an ice bath for 5 min and centrifuged at 14000 g for 1 min at 4° C., and the supernatants were mixed well as loading samples for the Western Blot assay. The samples were loaded into wells of a 10% precast gel (KeyGEN) with a loading volume of 10 μL (total protein: 5 μg), a sufficient Tris-MOPS-SDS running buffer (Adamas) was added, and then electrophoresis was performed at a constant voltage of 120 V for 55 min. After the electrophoresis, the proteins on the gel were transferred to PVDF membranes at a constant current of 250 mA for 55 min. After the membrane transfer, the PVDF membranes were incubated in 1× Quick Block blocking buffer (Beyotime)at room temperature for 30 min. After the blocking, the PVDF membranes were separately incubated at 4° C. overnight with the KRAS antibody (Abcam) diluted in a ratio of 1:1000 and the β-actin antibody (Abcam) diluted in a ratio of 1:2000 in 5% BSA as the diluent, and then washed with 1×TBST buffer (2.4 g of Tris, 8.8 g of NaCl, 1.5 mL of Tween 20, with pH adjusted to 7.4, with the volume brought to 1 L) 3 times for 10 min/time. The membranes were incubated with a secondary antibody (Abcam) diluted in 5% BSA at room temperature for 2 h, and then washed with 1×TBST buffer 3 times for 10 min/time. Finally, the membranes were incubated with Clarity Western ECL Substrate (BIO-RAD) for 5 min for luminescence and color development, and a ChemiScope 6200 Touch chemiluminescence imaging system (Clinx) was used for color development and protein mapping. Gray value analysis of the protein maps was performed using the chemiluminescence analysis software (Clinx). […]

[2] = system: KRAS G13D mutant human colorectal cancer epithelial cell DLD-1; test: 3D cell proliferation inhibition assay, DLD-1; settings: DLD-1, 168 h, 3D culture, 7 days, CTG
From the text: (§4) Test Example 6: 3D Cell Proliferation Inhibition Assay
(§5) The inhibitory effects of the compounds on 3D cell proliferation were investigated on KRAS G12C mutant human non-small cell lung cancer cell NCI-H358, KRAS G12D mutant human lung cancer cell A427, KRAS G12D mutant human gastric cancer cell AGS, KRAS G12D mutant human metastatic pancreatic cancer cell AsPc-1, KRAS G12V mutant human lung squamous carcinoma cell SW900, KRAS G12V mutant human colorectal cancer cell SW620, KRAS G13D mutant human colorectal cancer epithelial cell DLD-1, and KRAS WT human gastric cancer cell MKN1. The specific procedures were as follows:
(§6) 10 μL of each compound solution diluted in a gradient was added to corresponding wells of a 96-well low-adsorption microplate (PerkinElmer), so that the final concentrations of the test compounds in the reaction system were in a range of 10000-0.026 nM. The final concentration of DMSO was 0.2%. Then 90 µL of cells were correspondingly seeded into each well to achieve a cell density of 5×10^2 cells/well (the cell density of SW900 was 5×10^3 cells/well, and the cell density of MKN1 was 1×10^3 cells/well). In addition to test wells for the test compounds, both a DMSO control well and a medium control well were set, with the DMSO control well containing DMSO and cells and the medium well containing only a medium. After the sample loading, the 96-well low-adsorption microplate was incubated in an incubator at 37° C. with […] for 7 days. After 7 days, the microplate was taken out, and 100 μL of CTG reagent (Promega) was added to each well. The plate was incubated at room temperature for 60 m and read on a microplate reader EnVision by the chemiluminescence program. The inhibition rates of the compounds at each concentration were calculated using the formula for the percentage inhibition of cell proliferation: inhibition rate 00=(mean value of DMSO control group−single concentration reading value of compound)/(mean value of DMSO control group−mean value of medium control group)×100. Then non-linear curve fillings for logarithmic concentration-inhibition rate were performed by GraphPad Prism 8, and the IC50 values of the compounds were obtained (Table 6).

[3] = system: KRAS G12C mutant human non-small cell lung cancer cell NCI-H358; test: 3D cell proliferation inhibition assay, NCI-H358; settings: NCI-H358, 168 h, 3D culture, 7 days, CTG
From the text: as §4, §5, §6

[4] = system: KRAS G12V mutant human colorectal cancer cell SW620; test: 3D cell proliferation inhibition assay, SW620; settings: SW-620, 168 h, 3D culture, 7 days, CTG
From the text: as §4, §5, §6

[5] = target: T2, KRAS G12V protein in SW620 cells (Homo sapiens, UniProt P01116, G12V); test: KRAS degradation assay (Western Blot) in SW620 cells; settings: for DC50: 24 h; for Dmax: SW-620, 24 h
T2 construct: endogenous in cells; host or cells: SW620
From the text: as §1, §2, §3

[6] = system: KRAS G12D mutant human metastatic pancreatic cancer cell AsPc-1; test: 3D cell proliferation inhibition assay, AsPc-1; settings: ASPC1, 168 h, 3D culture, 7 days, CTG
From the text: as §4, §5, §6

T1 sequence (P01116 1-188 isoform P01116-2 G12V): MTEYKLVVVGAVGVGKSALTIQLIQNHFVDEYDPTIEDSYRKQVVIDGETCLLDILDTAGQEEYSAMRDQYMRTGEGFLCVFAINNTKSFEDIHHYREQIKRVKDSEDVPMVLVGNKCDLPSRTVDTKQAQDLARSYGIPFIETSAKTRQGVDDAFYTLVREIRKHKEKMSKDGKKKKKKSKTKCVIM
T2 sequence (P01116 1-188 isoform P01116-2 G12V): as above

C#Cc1c(F)ccc2cc(O)cc(-c3ncc4c(N5CCC[C@@](C)(O)C5)nc(OCC5(CN6CCC(CN(C)CCC7CCN(C(=O)c8ccc(Cl)c(N9CCC(=O)NC9=O)c8)CC7)CC6)CC5)nc4c3F)c12 [Example 18, (R)-1-(2-chloro-5-(4-(2-(((1-((1-(((7-(8-ethynyl-7-fluoro-3-hydroxynaphthalen-1-yl)-8-fluoro-4-(3-hydroxy-3-methylpiperidin-1-yl)piperidino[4,3-d]pyrimidin-2-yl)oxy)methyl)cyclopropyl)methyl)piperidin-4-yl)methyl)(methyl)amino)ethyl)piperidine-1-carbonyl)phenyl)dihydropyrimidine-2,4(1H,3H)-dione]
DC50 [1]: 100 to 500 nM | Dmax [1]: 50 to 80%

C#Cc1c(F)ccc2cc(O)cc(-c3ncc4c(NC5CC5)nc(OCC5(CN6CCN(CC7CCC8(CC7)CCN(C(=O)c7ccc(OC)c(N9CCC(=O)NC9=O)c7)CC8)CC6)CC5)nc4c3F)c12 [Example 31, 1-(5-(9-((4-((1-(((4-(cyclopropylamino)-7-(8-ethynyl-7-fluoro-3-hydroxynaphthalen-1-yl)-8-fluoropyrido[4,3-d]pyrimidin-2-yl)oxy)methyl)cyclopropyl)methyl)piperazin-1-yl)methyl)-3-azaspiro[5.5]undecane-3-carbonyl)-2-methoxyphenyl)dihydropyrimidine-2,4(1H,3H)-dione]
DC50 [1]: 50 to 100 nM | Dmax [1]: 50 to 80%

C#Cc1c(F)ccc2cc(O)cc(-c3ncc4c(NC(C)(C)C)nc(OCC5(CN6CCN(CC7CCC8(CC7)CCN(C(=O)c7ccc(OC)c(N9CCC(=O)NC9=O)c7)CC8)CC6)CC5)nc4c3F)c12 [Example 32, 1-(5-(9-((4-((1-(((4-(tert-butylamino)-7-(8-ethynyl-7-fluoro-3-hydroxynaphthalen-1-yl)-8-fluoropyrido[4,3-d]pyrimidin-2-yl)oxy)methyl)cyclopropyl)methyl)piperazin-1-yl)methyl)-3-azaspiro[5.5]undecane-3-carbonyl)-2-methoxyphenyl)dihydropyrimidine-2,4(1H,3H)-dione]
DC50 [1]: ≤ 50 nM | Dmax [1]: 50 to 80%

C#Cc1c(F)ccc2cc(O)cc(-c3ccc4c(N5CCC[C@@](C)(O)C5)nc(OC[C@H](C)CN5CCN(CC6CCC7(CC6)CCN(C(=O)c6ccc(OC)c(N8CCC(=O)NC8=O)c6)CC7)CC5)nc4c3F)c12 [Example 60, 1-(5-(9-((4-((R)-3-((7-(8-ethynyl-7-fluoro-3-hydroxynaphthalen-1-yl)-8-fluoro-4-((R)-3-hydroxy-3-methylpiperidin-1-yl)quinazolin-2-yl)oxy)-2-methylpropyl)piperazin-1-yl)methyl)-3-azaspiro[5.5]undecane-3-carbonyl)-2-methoxyphenyl)dihydropyrimidine-2,4(1H,3H)-dione]
IC50 [2]: 57.5 nM | IC50 [3]: 24 nM | IC50 [4]: 15.4 nM | DC50 [5]: 4.25 nM | Dmax [5]: 99.1% | IC50 [6]: 60.8 nM

C#Cc1c(F)ccc2cc(O)cc(-c3ccc4c(N5CCC[C@@](C)(O)C5)nc(OC[C@H](C)CN5CCN(CC6CCC7(CC6)CCN(C(=O)c6ccc(C)c(N8CCC(=O)NC8=O)c6)CC7)CC5)nc4c3F)c12 [Example 61, 1-(5-(9-((4-((R)-3-((7-(8-ethynyl-7-fluoro-3-hydroxynaphthalen-1-yl)-8-fluoro-4-((R)-3-hydroxy-3-methylpiperidin-1-yl)quinazolin-2-yl)oxy)-2-methylpropyl)piperazin-1-yl)methyl)-3-azaspiro[5.5]undecane-3-carbonyl)-2-methylphenyl)dihydropyrimidine-2,4(1H,3H)-dione]
IC50 [2]: 39.9 nM | IC50 [3]: 18.9 nM | IC50 [4]: 13.3 nM | DC50 [5]: 18.9 nM | Dmax [5]: 99.3% | IC50 [6]: 68.2 nM

C#Cc1c(F)ccc2cc(O)cc(-c3ncc4c(N5CCCC(F)(F)C5)nc(OC[C@H](C)CN5CCN(CC6CCC7(CC6)CCN(C(=O)c6ccc(OC)c(N8CCC(=O)NC8=O)c6)CC7)CC5)nc4c3F)c12 [Example 67, (R)-1-(5-(9-((4-(3-((4-(3,3-difluoropiperidin-1-yl)-7-(8-ethynyl-7-fluoro-3-hydroxynaphthalen-1-yl)-8-fluoropyrido[4,3-d]pyrimidin-2-yl)oxy)-2-methylpropyl)piperazin-1-yl)methyl)-3-azaspiro[5.5]undecane-3-carbonyl)-2-methoxyphenyl)dihydropyrimidine-2,4(1H,3H)-dione]
IC50 [2]: 70.2 nM | IC50 [3]: 535 nM | IC50 [4]: 32.9 nM | DC50 [5]: 33.6 nM | Dmax [5]: 93.1% | IC50 [6]: 417 nM

C#Cc1c(F)ccc2cc(O)cc(-c3ncc4c(N5CCCC(C)(N)C5)nc(OCC5(CN6CCN(CC7CCC8(CC7)CCN(C(=O)c7ccc(C)c(N9CCC(=O)NC9=O)c7)CC8)CC6)CC5)nc4c3F)c12 (stereo not shown) [Example 166, 1-(5-(9-((4-((1-(((4-(3-amino-3-methylpiperidin-1-yl)-7-(8-ethynyl-7-fluoro-3-hydroxynaphthalen-1-yl)-8-fluoropyrido[4,3-d]pyrimidin-2-yl)oxy)methyl)cyclopropyl)methyl)piperazin-1-yl)methyl)-3-azaspiro[5.5]undecane-3-carbonyl)-2-methylphenyl)dihydropyrimidine-2,4(1H,3H)-dione]
IC50 [6]: 523 nM
